From article PMC6749073 (Frontiers in Pharmacology, 2019)

Columns and labels:
A549 = assay: MTT cell viability assay, A549; type: cell-based, human; conditions: 48 h
Experimental: (§1) Cells were seeded at a density of 1 × 10^4 cells per well in 96-well plates. The following day, these cells were washed with PBS and exposed to different concentrations of testing compounds in culture medium for 48 h. MTT solution (10 μl at 5 mg/ml) was added to each well. After 4 h of incubation at 37°C, the medium was removed, and the insoluble precipitate was dissolved in 100 μl DMSO (Sigma, St. Louis, MO, USA). The absorbance of the dissolved solution at 490 nm was measured using a microplate reader (TECAN A-5082; Megllan, Austria). Cell viability percentages were calculated by dividing the mean optical density (OD) of compound-containing wells by that of the control wells. Each experiment was replicated three times. The IC50 of testing drugs was calculated with Statistical Product and Service Solutions software (SPSS, version 16.0).

[1] = Pharmacokinetic and toxicokinetic characterization in Beagle dogs; type: in vivo; conditions: single dose 10, 20, 40 mg/kg
From the text: Furthermore, AI was employed to evaluate the accumulated toxicity of the two complexes.

[2] = Biodistribution of Pt by atomic absorption spectrometry in A549 xenograft nude mice; type: in vivo; conditions: 6 h after administration; diplatin 120 mg/kg vs CBP 70 mg/kg (equivalent Pt dose), i.v.
Experimental: At each time point of 10 min, 2 h, 6 h, and 24 h after administration, six mice were sacrificed. The tumors, organs/tissues, and blood were immediately collected. Then, Pt concentration was measured by atomic absorption spectrometry, counting the weight/volume of the tumors, tissues, organs, or blood.
At each time point of 10 min, 2 h, 6 h and 24 h after administration, 6 mice were sacrificed. The tumors, organ/tissue, and blood were immediately collected. Then, Pt concentration was measured by atomic absorption spectrometry, counting the weight/volume of the tumors, tissues or organs/blood.

H1650 = assay: MTT cell viability assay, H1650; type: cell-based, human; conditions: 48 h
Experimental: as §1

H292 = assay: MTT cell viability assay, H292; type: cell-based, human; conditions: 48 h
Experimental: as §1

A549 cells = assay: Cell cycle by PI flow cytometry, A549; type: cell-based, human; conditions: diplatin 50 μM, DDP 5 μM, CBP 100 μM
Experimental: (§2) Then, the cells were trypsinized, washed with PBS, and fixed in 1.5 ml 95% ethanol and left at 4°C overnight. They were then incubated with RNase and stained with propidium iodide (PI) (Multi Sciences Biotech Co., Ltd). PI absorbance was determined using a Cytomics FC500 Flow Cytometer (Beckman Coulter, USA).

[3] = system: A549, NCI-H292, NCI-H460, and LTEP-A-2 xenograft models; assay: ED50 (50% reduction of xenograft tumor volume) in nude mice; type: in vivo; conditions: dose reducing xenograft tumor volume by 50%; average over A549, NCI-H292, NCI-H460, and LTEP-A-2 xenograft models
Experimental: After injection, the animals’ condition was monitored every day for over 1 week by an observer who was blinded to the dose and drug allocation.
Estimates for ED50 and LD50 were calculated through nonlinear regression, data were fitted to a sigmoidal dose-response relationship in Prism (version 4.0a; GraphPad Software, Inc., San Diego, CA). The data were fitted to the equation:
Y=Ymin+Ymax−Ymin/1+10^(LogED50−X)∗HillSlope
where X is the logarithm of concentration, and Y is the response.

A549 and H292 cells = assay: EdU incorporation assay; type: cell-based, human; conditions: 48 h; diplatin 50 μM, DDP 5 μM, CBP 100 μM
Experimental: Cell proliferation was analyzed by measurement of DNA synthesis as identified by the EdU cell proliferation assay, which was applied in accordance with product manufacturer instructions. Cells (5 × 10^4 cells per well) were cultured in triplicate in 24-well plates and treated with testing compounds for 48 h. Then the cells were incubated with 50 μM EdU for an additional 2 h at 37°C. Cells were fixed with 4% formaldehyde for 30 min and were permeabilized with 0.5% Triton X-100 for 10 min at room temperature. After washing with PBS three times, cells were incubated for 30 min with 1× Apollo reaction cocktail. Finally, cells were stained with 10 μg/ml of Hoechst 33342 for 30 min and then imaged using a confocal laser scanning microscope (FV1000; Olympus, Japan). The percentage of EdU^+ cells was quantified using ImageJ software by dividing the mean OD of EdU^+ cells to the mean OD of Hoechst-labeled cells.

LTEP-A-2 cells = assay: Cell cycle by PI flow cytometry, LTEP-A-2; type: cell-based, human; conditions: diplatin 50 µM, DDP 5 µM, CBP 100 µM
Experimental: as §2

With `CCN(CC)CCCCC1C(=O)[O][Pt][O]C1=O.N[C@@H]1CCCC[C@H]1N.O=P(O)(O)O` [Diplatin] the IC50 (A549) was 102 µM, the “time of maximum platinum levels in the plasma” value [1] was 0.33 h and the “Pt accumulation in the kidneys, times higher than CBP” value [2] was 2.2 times. For the same compound, the IC50 (H1650) was 36.6 µM, the IC50 (H292) was 30.9 µM and the “effect on cell cycle distribution” value (A549 cells) was “significant accumulation of cells in G2/M phase”. For the same compound, the “Mice ED50” value [3] was 52.0 mg/kg, the EdU incorporation (A549 and H292 cells) was “dramatically decreased” and the “effect on cell cycle distribution” value (LTEP-A-2 cells) was “significant accumulation of cells in G2/M phase”.
